Test results reported in patent publication USRE49873E1, “APP specific bace inhibitors (ASBIs) and uses thereof” (BUCK INSTITUTE FOR RESEARCH ON AGING, priority 2012, dated 2024).

How the values were obtained:
[1] = target: T1, BACE cleavage of the P5-P5′ substrate (Homo sapiens, UniProt P56817); assay: ASBI assay b): P5-P5′ fluorescence substrate cleavage assay; format: biochemical; conditions: flavonoids at 100 uM
T1 construct: purchased Sigma-Aldrich (kit); R&D (HTS description) CS0010; 931-AS-050
Experimental: As illustrated in the Examples, in one embodiment, an MBP-C125 APP695 wt fusion protein can be used as one of the substrates. The second substrate can be the commercially available P5-P5′ fluorescence substrate. Each of these substrates is incubated with recombinant BACE (R&D (cat#931-AS-050) in, for example, a 96 well plate format. For the MBP-C125 substrate the C-99 product from the BACE cleavage can be measured using an AlphaLisa assay as a readout. For the P5-5′ substrate the […] upon BACE cleavage can be used as the readout. An ASBI would inhibit the BACE cleavage of the MBP-C125 substrate while not being inhibitory of the fluorescence substrate. […]
A primary high-throughput screening (HTS) assay was set up for identification of ASBIs using a dual-substrate testing paradigm (FIGS. 3A & 3B). The previously reported (Sinha et al. (1999) Nature, 402: 537-540) BACE substrate the MBP-C125 APP695 wt fusion protein consisting of maltose binding protein fused to the carboxyterminal 125 amino acids of wild type APP, was used as the primary substrate; and the commercially available P5-P5′ fluorescence substrate, derived from the P5-P5′ residues of the BACE cleavage site of APP, was used as the secondary substrate. […]

[2] = target: acetylcholine esterase (AChE) (Homo sapiens, UniProt P22303); conditions: Guo et al. (2010); cited from earlier work
Sequence of acetylcholine esterase (AChE) (P22303 32-614): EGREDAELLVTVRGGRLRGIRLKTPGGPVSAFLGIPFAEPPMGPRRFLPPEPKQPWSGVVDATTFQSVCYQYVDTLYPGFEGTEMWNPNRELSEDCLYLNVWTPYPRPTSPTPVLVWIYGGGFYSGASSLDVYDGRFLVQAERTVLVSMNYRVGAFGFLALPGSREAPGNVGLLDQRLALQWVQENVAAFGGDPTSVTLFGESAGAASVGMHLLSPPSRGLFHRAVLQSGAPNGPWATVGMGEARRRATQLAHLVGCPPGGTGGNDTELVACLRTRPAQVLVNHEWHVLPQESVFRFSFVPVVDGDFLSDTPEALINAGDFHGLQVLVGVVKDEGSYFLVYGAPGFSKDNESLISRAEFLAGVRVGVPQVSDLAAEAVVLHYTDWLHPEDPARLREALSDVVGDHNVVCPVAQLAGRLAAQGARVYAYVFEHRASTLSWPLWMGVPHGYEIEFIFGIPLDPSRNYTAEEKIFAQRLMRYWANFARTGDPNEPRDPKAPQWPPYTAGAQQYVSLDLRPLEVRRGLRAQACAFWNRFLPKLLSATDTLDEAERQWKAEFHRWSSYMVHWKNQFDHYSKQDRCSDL

T1 sequence (P56817 46-501): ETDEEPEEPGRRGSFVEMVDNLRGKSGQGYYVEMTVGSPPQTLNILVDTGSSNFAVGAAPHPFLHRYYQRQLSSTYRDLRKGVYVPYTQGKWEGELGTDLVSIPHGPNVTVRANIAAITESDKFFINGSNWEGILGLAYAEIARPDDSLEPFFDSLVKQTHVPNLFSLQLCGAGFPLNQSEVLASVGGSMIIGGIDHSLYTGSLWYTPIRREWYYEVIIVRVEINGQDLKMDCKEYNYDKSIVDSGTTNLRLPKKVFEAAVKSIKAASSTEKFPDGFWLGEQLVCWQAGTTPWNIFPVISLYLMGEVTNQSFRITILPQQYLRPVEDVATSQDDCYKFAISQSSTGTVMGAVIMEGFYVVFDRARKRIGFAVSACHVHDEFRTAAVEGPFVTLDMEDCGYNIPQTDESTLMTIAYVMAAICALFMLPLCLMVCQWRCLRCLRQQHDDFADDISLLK

## O=c1c(O)c(-c2ccccc2)oc2cc(O)cc(O)c12 [Galangin]
[1]
  inhibition of BACE cleavage of the P5-P5′ substrate: showing no inhibition of the P5-P5′ substrate
[2]
  inhibitor of acetylcholine esterase (AChE): inhibitor of acetylcholine esterase (AChE)
